This note sets out measurements from patent publication US20240208964A1, “PYRIDOPYRIMIDINES AND METHODS OF THEIR USE” (PYRIDOPYRIMIDINES AND METHODS OF THEIR USE, priority 2020, published 2024).

For orientation: pIC50 means the negative decadic logarithm of the IC50, by convention in mol/L.

pIC50: −log10 of the molar value.

Sequence of full-length human PIKFYVE (GST-PIKFYVE) (Q9Y2I7 whole entry S696N/L932S/Q995L/T998S/S1033A/Q1183K, the tested form may be a part): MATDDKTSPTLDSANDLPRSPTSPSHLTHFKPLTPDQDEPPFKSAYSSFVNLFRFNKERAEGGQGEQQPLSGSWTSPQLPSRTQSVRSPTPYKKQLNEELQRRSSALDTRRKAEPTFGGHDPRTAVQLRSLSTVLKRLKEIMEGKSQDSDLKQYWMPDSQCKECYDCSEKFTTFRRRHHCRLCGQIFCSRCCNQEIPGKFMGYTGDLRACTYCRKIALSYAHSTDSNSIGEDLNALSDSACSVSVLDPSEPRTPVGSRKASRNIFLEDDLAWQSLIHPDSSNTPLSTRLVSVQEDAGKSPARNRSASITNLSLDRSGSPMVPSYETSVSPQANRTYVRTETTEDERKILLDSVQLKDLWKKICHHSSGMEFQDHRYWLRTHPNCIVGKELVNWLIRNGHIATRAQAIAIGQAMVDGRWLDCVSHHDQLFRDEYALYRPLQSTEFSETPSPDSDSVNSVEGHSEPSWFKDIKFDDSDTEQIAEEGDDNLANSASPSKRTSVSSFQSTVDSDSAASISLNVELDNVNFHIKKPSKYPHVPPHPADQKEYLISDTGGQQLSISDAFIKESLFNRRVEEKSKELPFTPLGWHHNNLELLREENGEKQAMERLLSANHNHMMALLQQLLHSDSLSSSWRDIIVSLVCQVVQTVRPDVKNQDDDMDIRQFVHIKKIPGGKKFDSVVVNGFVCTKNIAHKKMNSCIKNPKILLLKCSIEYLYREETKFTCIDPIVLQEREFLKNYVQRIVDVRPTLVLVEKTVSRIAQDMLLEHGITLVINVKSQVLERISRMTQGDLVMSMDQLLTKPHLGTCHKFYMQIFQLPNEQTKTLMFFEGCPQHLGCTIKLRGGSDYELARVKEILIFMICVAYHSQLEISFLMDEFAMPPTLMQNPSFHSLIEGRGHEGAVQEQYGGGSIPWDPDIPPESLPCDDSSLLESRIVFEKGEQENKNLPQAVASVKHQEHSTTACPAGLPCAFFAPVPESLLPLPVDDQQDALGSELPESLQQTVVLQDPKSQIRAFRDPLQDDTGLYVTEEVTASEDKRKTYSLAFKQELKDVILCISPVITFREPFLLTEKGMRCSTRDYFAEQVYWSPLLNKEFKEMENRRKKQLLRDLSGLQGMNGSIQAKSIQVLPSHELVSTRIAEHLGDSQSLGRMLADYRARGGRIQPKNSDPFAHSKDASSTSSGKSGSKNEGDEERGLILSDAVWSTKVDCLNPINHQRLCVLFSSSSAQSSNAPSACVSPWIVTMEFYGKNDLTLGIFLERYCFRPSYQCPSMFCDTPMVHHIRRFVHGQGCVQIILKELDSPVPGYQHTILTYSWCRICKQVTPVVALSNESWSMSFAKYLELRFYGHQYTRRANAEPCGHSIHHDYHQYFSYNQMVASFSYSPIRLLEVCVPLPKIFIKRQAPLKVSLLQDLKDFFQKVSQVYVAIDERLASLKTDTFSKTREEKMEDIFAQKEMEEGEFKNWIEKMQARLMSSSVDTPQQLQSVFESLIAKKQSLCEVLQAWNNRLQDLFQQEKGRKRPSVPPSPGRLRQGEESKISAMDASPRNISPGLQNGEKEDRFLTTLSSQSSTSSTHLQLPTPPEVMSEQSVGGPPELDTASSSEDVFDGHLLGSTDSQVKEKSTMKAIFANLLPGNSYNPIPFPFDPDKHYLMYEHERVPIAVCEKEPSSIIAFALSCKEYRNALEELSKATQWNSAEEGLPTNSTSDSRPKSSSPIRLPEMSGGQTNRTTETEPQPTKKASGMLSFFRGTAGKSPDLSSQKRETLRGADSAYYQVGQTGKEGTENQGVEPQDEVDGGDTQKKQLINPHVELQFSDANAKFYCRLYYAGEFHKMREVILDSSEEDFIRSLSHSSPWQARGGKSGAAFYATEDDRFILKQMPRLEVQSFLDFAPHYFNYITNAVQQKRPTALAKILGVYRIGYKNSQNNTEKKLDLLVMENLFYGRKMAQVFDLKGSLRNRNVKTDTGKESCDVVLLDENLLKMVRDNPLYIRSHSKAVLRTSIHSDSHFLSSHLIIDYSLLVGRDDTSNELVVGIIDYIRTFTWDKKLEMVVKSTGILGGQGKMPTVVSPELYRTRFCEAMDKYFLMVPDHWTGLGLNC

One experiment deals with full-length human PIKFYVE (GST-PIKFYVE) (Homo sapiens (Human), UniProt Q9Y2I7, L932S/Q1183K/Q995L/S1033A/S696N/T998S). As to the kind of experiment: PIKfyve biochemical assay (ADP-Glo Kinase assay, Carna Biosciences). To be noted: ADP-Glo, full-length human PIKFYVE; read-out: hPIKfyve IC50. An excerpt:
PIKfyve Biochemical Assay. The biochemical PIKFyve inhibition assays were run by Carna Biosciences according to proprietary methodology based on the Promega ADP-Glo™ Kinase assay. A full-length human PIKFYVE [1-2098(end) amino acids and S696N, L932S, Q995L, T998S, S1033A and Q1183K of the protein having the sequence set forth in NCBI Reference Sequence No. NP_055855.2] was expressed as N-terminal GST-fusion protein (265 kDa) using baculovirus expression system. GST-PIKFYVE was purified by using glutathione sepharose chromatography and used in an ADP-Glo™ Kinase assay (Promega). Reactions were set up by adding the test compound solution, substrate solution, ATP solution and kinase solution, each at 4× final concentrations. Reactions were prepared with assay buffer (50 mM MOPS, 1 mM DTT, pH7.2), mixed, and incubated in black 384 well polystyrene plates for 1 hour at room temperature. ADP-Glo™ reagent was then added for 40 minutes, followed by kinase detection reagent for an additional 40 minutes. The kinase activity was evaluated by detecting relative light units on a luminescence plate reader. Samples were run in duplicate from 10 μM to 3 nM. […] IC50 values were calculated from concentration vs % inhibition curves by fitting to a four-parameter logistic curve.
The biochemical PIKFyve inhibition assays were run by Carna Biosciences according to proprietary methodology based on the Promega ADP-Glo™ Kinase assay. A full-length human PIKFYVE [1-2098(end) amino acids and S696N, L932S, Q995L, T998S, S1033A and Q1183K of accession number NP_055855.2] was expressed as N-terminal GST-fusion protein (265 kDa) using baculovirus expression system. GST-PIKFYVE was purified by using glutathione sepharose chromatography and used in an ADP-Glo™ Kinase assay (Promega).
Reactions were set up by adding the test compound solution, substrate solution, ATP solution and kinase solution, each at 4× final concentrations. Reactions were prepared with assay buffer (50 mM MOPS, 1 mM DTT, pH7.2), mixed, and incubated in black 384 well polystyrene plates for 1 hour at room temperature. ADP-Glo™ reagent was then added for 40 minutes, followed by kinase detection reagent for an additional 40 minutes. The kinase activity was evaluated by detecting relative light units on a luminescence plate reader. Samples were run in duplicate from 10 uM to 3 nM. […] IC50 values were calculated from concentration vs % inhibition curves by fitting to a four-parameter logistic curve.
In general terms: ADP-Glo turns the ADP formed in a reaction into a luminescent signal.
Consider `CCC(=O)N1CCC(c2ccn(-c3nc(N4CCOCC4)c4ncccc4n3)n2)CC1` [compound 1, 1-[4-[1-(4-morpholinopyrido[3,2-d]pyrimidin-2-yl)pyrazol-3-yl]-1-piperidyl]propan-1-one], for which the negative-log IC50 (pIC50) was 5.00 to 6.00. On the same count and under the same terms, the value for `c1cnc2c(N3CCOCC3)nc(-n3ccc(-c4cncnc4)n3)nc2c1` [compound 2, 4-[2-(3-pyrimidin-5-ylpyrazol-1-yl)pyrido[3,2-d]pyrimidin-4-yl]morpholine] was 5.00 to 6.00; that for `CC(C)(C)OC(=O)N1CC=C(c2ccn(-c3nc(N4CCOCC4)c4ncccc4n3)n2)CC1` [compound 3, tert-butyl 4-[1-(4-morpholinopyrido[3,2-d]pyrimidin-2-yl)pyrazol-3-yl]-3,6-dihydro-2H-pyridine-1-carboxylate] was 5.00 to 6.00; that for `CC(C)(C)OC(=O)N1CCC=C(c2ccn(-c3nc(N4CCOCC4)c4ncccc4n3)n2)C1` [compound 4, tert-butyl 3-(1-(4-morpholinopyrido[3,2-d]pyrimidin-2-yl)-1H-pyrazol-3-yl)-5,6-dihydropyridine-1(2H)-carboxylate] was 5.00 to 6.00. Same read-out and setting: the value for `CC(C)(C)OC(=O)N1CCC(c2ccn(-c3nc(N4CCOCC4)c4ncccc4n3)n2)CC1` [compound 5, tert-butyl 4-[1-(4-morpholinopyrido[3,2-d]pyrimidin-2-yl)pyrazol-3-yl]piperidine-1-carboxylate] was 5.00 to 6.00; that for `CC(C)(C)OC(=O)N1CCCC(c2ccn(-c3nc(N4CCOCC4)c4ncccc4n3)n2)C1` (centres unmarked) [compound 6, tert-butyl 3-(1-(4-morpholinopyrido[3,2-d]pyrimidin-2-yl)-1H-pyrazol-3-yl)piperidine-1-carboxylate] was 5.00 to 6.00; that for `c1ccc2nn(-c3nc(N4CCOCC4)c4ncccc4n3)cc2c1` [compound 7, 4-(2-indazol-2-ylpyrido[3,2-d]pyrimidin-4-yl)morpholine] was 6.00 to 7.00. Regarding `CC(C)c1ccn(-c2nc(N3CCOCC3)c3ncccc3n2)n1` [compound 9, 4-(2-(3-isopropyl-1H-pyrazol-1-yl)pyrido[3,2-d]pyrimidin-4-yl)morpholine], the negative logarithm of the IC50 (pIC50) was 5.00 to 6.00. `c1cnc2c(N3CCOCC3)nc(-n3ccc(-c4ccncc4)n3)nc2c1` [compound 10, 4-(2-(3-(pyridin-4-yl)-1H-pyrazol-1-yl)pyrido[3,2-d]pyrimidin-4-yl)morpholine]: the negative-log IC50 (pIC50) is 6.00 to 7.00. Consider `c1cncc(-c2ccn(-c3nc(N4CCOCC4)c4ncccc4n3)n2)c1` [compound 11, 4-(2-(3-(pyridin-3-yl)-1H-pyrazol-1-yl)pyrido[3,2-d]pyrimidin-4-yl)morpholine], for which the pIC50 is 6.00 to 7.00. Consider `c1ccc(-c2ccn(-c3nc(N4CCOCC4)c4ncccc4n3)n2)nc1` [compound 12, 4-(2-(3-(pyridin-2-yl)-1H-pyrazol-1-yl)pyrido[3,2-d]pyrimidin-4-yl)morpholine], for which the pIC50 was 7.00 to 8.00. As to `c1ccc(-c2ccn(-c3nc(N4CCOCC4)c4ccncc4n3)n2)cc1` [compound 13], the negative logarithm of the IC50 (pIC50) is 6.00 to 7.00. Still for that read-out and setting: the value for `CCc1cnc2c(N3CCOCC3)nc(-n3ccc(-c4ccncc4)n3)nc2c1` [compound 14, 4-(7-Ethyl-2-(3-(pyridin-4-yl)-1H-pyrazol-1-yl)pyrido[3,2-d]pyrimidin-4-yl)morpholine] was 5.00 to 6.00.

Turning to `c1ccc(Nc2nc(N3CCOCC3)c3ncc(-c4ccco4)cc3n2)cc1` [compound 15, 7-(furan-2-yl)-4-morpholino-N-phenylpyrido[3,2-d]pyrimidin-2-amine], the pIC50 was 6.00 to 7.00. In the case of `c1ccc(Oc2nc(N3CCOCC3)c3ncc(-c4ccco4)cc3n2)cc1` [compound 16, 4-(7-(furan-2-yl)-2-phenoxypyrido[3,2-d]pyrimidin-4-yl)morpholine], the negative logarithm of the IC50 (pIC50) is under 5.00. On to `c1ccc(-c2ccn(-c3nc(N4CCOCC4)c4ncc(C5CCCOC5)cc4n3)n2)cc1` (centres unmarked) [compound 19, 4-(2-(3-Phenyl-1H-pyrazol-1-yl)-7-(tetrahydro-2H-pyran-3-yl)pyrido[3,2-d]pyrimidin-4-yl)morpholine], for which the negative logarithm of the IC50 (pIC50) was 7.00 to 8.00.

With `Cc1cccc(CCNc2nc(N3CCOCC3)c3ncccc3n2)c1` [compound 23, N-(3-methylphenethyl)-4-morpholinopyrido[3,2-d]pyrimidin-2-amine], the negative-log IC50 (pIC50) is 6.00 to 7.00. As for `Oc1cc(-c2ccccc2)nn1-c1nc(N2CCOCC2)c2cccnc2n1` [compound 25, 2-(4-morpholinopyrido[2,3-d]pyrimidin-2-yl)-5-phenyl-2,4-dihydro-3H-pyrazol-3-one], the negative logarithm of the IC50 (pIC50) is 5.00 to 6.00.

In the case of `Oc1cc(-c2ccccc2)nn1-c1nc(N2CCOCC2)c2ncccc2n1` [compound 27, 1-(4-morpholinopyrido[3,2-d]pyrimidin-2-yl)-3-phenyl-1H-pyrazol-5-ol], the pIC50 is 7.00 to 8.00. Consider `O=C1N(c2cccc(F)c2)CCN1c1nc(N2CCOCC2)c2ncccc2n1` [compound 28, 1-(3-fluorophenyl)-3-(4-morpholinopyrido[3,2-d]pyrimidin-2-yl)imidazolidin-2-one], for which the negative logarithm of the IC50 (pIC50) was 5.00 to 6.00. In the case of `O=C1N(c2ccccc2)CCN1c1nc(N2CCOCC2)c2ncccc2n1` [compound 29, 1-(4-morpholinopyrido[3,2-d]pyrimidin-2-yl)-3-phenyl-imidazolidin-2-one], the pIC50 is 5.00 to 6.00. Turning to `O=C1N(c2nc(N3CCOCC3)c3ncccc3n2)CCN1C1CCCC1` [compound 30, 1-cyclopentyl-3-(4-morpholinopyrido[3,2-d]pyrimidin-2-yl)imidazolidin-2-one], the negative-log IC50 (pIC50) is 5.00 to 6.00.

Consider `CCn1c(-c2ccccc2)nn(-c2nc(N3CCOCC3)c3ncccc3n2)c1=O` [compound 31, 4-ethyl-2-(4-morpholinopyrido[3,2-d]pyrimidin-2-yl)-5-phenyl-1,2,4-triazol-3-one], for which the pIC50 is 5.00 to 6.00. With `Cn1c(-c2ccccc2)nn(-c2nc(N3CCOCC3)c3ncccc3n2)c1=O` [compound 32, 4-methyl-2-(4-morpholinopyrido[3,2-d]pyrimidin-2-yl)-5-phenyl-1,2,4-triazol-3-one], the pIC50 is 5.00 to 6.00. For `CC(C)(C)OC(=O)N1CCC(c2nccc(-c3nc(N4CCOCC4)c4ncccc4n3)n2)CC1` [compound 33, tert-butyl 4-[4-(4-morpholinopyrido[3,2-d]pyrimidin-2-yl)pyrimidin-2-yl]piperidine-1-carboxylate], the pIC50 was 5.00 to 6.00.

`c1cnc2c(N3CCOCC3)nc(-c3ccnc(N4CCNCC4)n3)nc2c1` [compound 34, 4-[2-(2-piperazin-1-ylpyrimidin-4-yl)pyrido[3,2-d]pyrimidin-4-yl]morpholine]: the negative logarithm of the IC50 (pIC50) was 5.00 to 6.00. In the case of `c1cnc2c(N3CCOCC3)nc(-c3ccnc(C4CCOCC4)n3)nc2c1` [compound 35, 4-[2-(2-tetrahydropyran-4-ylpyrimidin-4-yl)pyrido[3,2-d]pyrimidin-4-yl]morpholine], the pIC50 was 5.00 to 6.00. On to `c1cnc2c(N3CCOCC3)nc(-c3ccnc(C4CCNCC4)n3)nc2c1` [compound 37, 4-[2-[2-(4-piperidyl)pyrimidin-4-yl]pyrido[3,2-d]pyrimidin-4-yl]morpholine], for which the pIC50 was 5.00 to 6.00. The same measure, in the same setting: the value for `CN1CCC(c2nccc(-c3nc(N4CCOCC4)c4ncccc4n3)n2)CC1` [compound 38, 4-[2-[2-(1-methyl-4-piperidyl)pyrimidin-4-yl]pyrido[3,2-d]pyrimidin-4-yl]morpholine] was 5.00 to 6.00. Take `c1cnc2c(N3CCOCC3)nc(-n3ccc(C4CCNCC4)n3)nc2c1` [compound 42, 4-[2-[3-(4-piperidyl)pyrazol-1-yl]pyrido[3,2-d]pyrimidin-4-yl]morpholine]: the pIC50 is 5.00 to 6.00. On to `c1cnc2c(N3CCOCC3)nc(-n3ccc(C4CCCNC4)n3)nc2c1` (centres unmarked) [compound 43, 4-(2-(3-(piperidin-3-yl)-1H-pyrazol-1-yl)pyrido[3,2-d]pyrimidin-4-yl)morpholine], for which the pIC50 is 5.00 to 6.00. Still for that read-out and setting: the same measure for `CN1CCCC(c2ccn(-c3nc(N4CCOCC4)c4ncccc4n3)n2)C1` (centres unmarked) [compound 44, 4-(2-(3-(1-methylpiperidin-3-yl)-1H-pyrazol-1-yl)pyrido[3,2-d]pyrimidin-4-yl)morpholine]: 5.00 to 6.00.

Still in this experiment, the particulars now being: values plotted in FIG. 7; read-out: PIKFYVE Biochemistry (IC50).
In the case of `c1ccc(-c2nc(-c3cc(N4CCOCC4)nc(OCc4ccncc4)n3)no2)cc1`, the negative-log IC50 (pIC50) is under 5.00. Take `O=c1c(CCOc2cccnc2)cc2ncncc2n1-c1ccccc1`: the negative logarithm of the IC50 (pIC50) was under 5.00. The same measure, in the same setting: the value for `O=c1ccn(Cc2nc(N3CCOCC3)cc(-n3nccc3-c3ccccc3)n2)cc1` was under 5.00.
